Earlier results as cited in the CATMoS acute toxicity set (Mansouri et al. 2021).
Several values for one entry are separate records, joined by “and”; a condition that tells them apart may be missing. Equal values may be shown once.

Test: rat acute oral toxicity
Settings: in vivo

Row | Compound | LD50
1 | CCCN(CCC)c1c([N+](=O)[O-])cc(C)cc1[N+](=O)[O-] | 3600 mg/kg
2 | O=C(Cl)c1ccc(Oc2ccc(C(=O)Cl)cc2)cc1 | 8700 mg/kg
3 | O=[N+]([O-])c1ccc(O)c(Cl)c1 | 900 mg/kg
4 | CCCCC(CC)CN1C(=O)C2C3C=CC(C3)C2C1=O (centres undefined) | 2800 mg/kg
5 | CCCCCCCCC[N+]1(C)[C@H]2CC(OC(=O)C(CO)c3ccccc3)C[C@H]1[C@H]1O[C@H]12 (some centres undefined) | 1300 mg/kg
6 | CC(Br)C=CCl (centres undefined) | 74 mg/kg
7 | CCOc1ccccc1N1CCN(CC=Cc2ccc3c(c2)CCC(=O)N3)CC1 | 500 mg/kg
8 | COc1ccc2cc([C@H](C)C(=O)OCCN3CCN(Cc4ccccc4)CC3)ccc2c1 | 1100 mg/kg
9 | CN(Sc1ccc([N+](=O)[O-])cc1)C(=O)Oc1cccc2c1OC(C)(C)C2 | 25 mg/kg
10 | Cc1ccc(SN(C)C(=O)Oc2cccc3c2OC(C)(C)C3)cc1 | 25 mg/kg
11 | CCOc1ccc(Cl)cc1C(CN1CCCCC1)C(C)CC (centres undefined) | 445 mg/kg
12 | CCCC=C(CC)[N+](=O)[O-] | 620 mg/kg
13 | CCN(CC)CCC(=O)N1c2ccccc2Sc2ccc(C(F)(F)F)cc21 | 860 mg/kg
14 | O=C(c1cccnc1)N1CCN=C1Nc1c(Cl)cccc1Cl | 80 mg/kg
15 | Nc1ccc(I)cc1 | 523 mg/kg
16 | CN(C)c1cccc2nc3cccc([N+](=O)[O-])c3cc12 | 24 mg/kg
17 | COC(=O)[C@H](C)N(OC)c1c(C)cccc1C | 566 mg/kg
18 | CCCCC(O)C(N)CC (centres undefined) | 550 mg/kg
19 | CC(C)Oc1ccccc1[N+](=O)[O-] | 2500 mg/kg
20 | S=C=Nc1ccc(Br)cc1 | 400 mg/kg
21 | c1ccc(C2(c3ccccc3)COC(c3ccccc3)(C3CCCCN3)OC2)cc1 (centres undefined) | 300 mg/kg
22 | CC1(C)NC(=O)N(c2ccc([N+](=O)[O-])c(C(F)(F)F)c2)C1=O | 195 mg/kg
23 | CCN=c1nc(Cl)[nH]c(=NC(C)CC)[nH]1 (centres undefined) | 3000 mg/kg

Row | Compound | LD50
24 | CN=C1C=CC(=C(c2ccc(N(C)C)cc2)c2ccc(N(C)C)cc2)C=C1 | 413 mg/kg
25 | COCc1ccc(-c2ccc(COC)cc2)cc1 | 1370 mg/kg
26 | Cc1ccccc1N=C=O | 1600 mg/kg
27 | CCCCC(CC)COS(=O)(=O)O (centres undefined) | 4120 mg/kg
28 | O=C1c2ccccc2C(=O)c2c(Nc3ccc(Oc4ccc(S(=O)(=O)O)cc4)cc3)ccc(Nc3ccc(Oc4ccc(S(=O)(=O)O)cc4)cc3)c21 | 8550 mg/kg
29 | ClCCOCCOCCCl | 250 mg/kg
30 | CCCN(CCCCOC(=O)c1ccc(OC)c(OC)c1)C1CCc2cc(OC)ccc2C1 (centres undefined) | 707 mg/kg
31 | O=NN(CCO)CCO | 7500 mg/kg
32 | O=C(O)C(F)(F)C(F)(F)F | 1770 mg/kg
33 | CN1CCN(C2=Cc3ccccc3Oc3ccc(F)cc32)CC1 | 646 mg/kg
34 | Cn1c(=O)on(-c2ccc(Cl)c(Cl)c2)c1=O | 777 mg/kg
35 | Cn1c(=O)c2c(nc(Cc3ccc(N)cc3)n2C)n(C)c1=O | 383 mg/kg
36 | CCN(CC)c1ccc(N)cc1 | 200 mg/kg
37 | NC1CCc2ccccc2C1 (centres undefined) | 100 mg/kg
38 | CCN(CC)CCNC(=O)c1cc([N+](=O)[O-])c(N(C)C)cc1OC | 856 mg/kg
39 | O=C(O)c1cc(/N=N/c2ccc(S(=O)(=O)Nc3ccccn3)cc2)ccc1O | 15600 mg/kg
40 | O=C(CCCN1CCN(C(=O)OC2CCCCC2)CC1)c1ccc(F)cc1 | 1080 mg/kg
41 | OCC1CCc2cc(C3CCCCC3)ccc21 (centres undefined) | 295 mg/kg and 165 mg/kg
42 | CCCC/C=C/C=O | 1300 mg/kg
43 | O=c1oc2ccccc2c(O)c1C(CC(O)c1ccc(-c2ccc(Br)cc2)cc1)c1ccccc1 (centres undefined) | 0.49 mg/kg
44 | CC1(C)S[C@@H]2[C@H](NC(=O)C(C(=O)Oc3ccccc3)c3ccccc3)C(=O)N2[C@H]1C(=O)O (some centres undefined) | 10000 mg/kg
45 | CCCCCCCCOC(=O)CC(C(=O)OCCCCCCCC)S(=O)(=O)O (centres undefined) | 1900 mg/kg
46 | O=C=NCc1ccc(CN=C=O)cc1 | 4500 mg/kg

Row | Compound | LD50
47 | CCCN1CCCC1=Nc1ccc(Cl)c(Cl)c1 | 2120 mg/kg
48 | CCOC(=O)C1=C(C)NC(C)=C(C(=O)OC)C1c1cccc([N+](=O)[O-])c1 (centres undefined) | 15400 mg/kg
49 | CC(=NNCCC1CCCCC1)C(=O)O | 520 mg/kg
50 | CC(C)CCOC(=O)c1ccccc1O | 3300 mg/kg
51 | CO[C@H]1C[C@H](O[C@H]2[C@H](C)[C@@H](O[C@@H]3O[C@H](C)C[C@H](N(C)C)[C@H]3O)[C@@H](C)C[C@]3(CO3)C(=O)[C@H](C)[C@@H](O)[C@@H](C)[C@@H](C)OC(=O)[C@@H]2C)O[C@@H](C)[C@@H]1O | 6700 mg/kg
52 | CCCCNc1ccccc1 | 1620 mg/kg
53 | Nc1ccccc1Cl | 1020 mg/kg
54 | CCOP(=S)(OCC)Oc1ccc(SC)c(C)c1 | 14 mg/kg
55 | CC(=O)Nc1ccc(/N=N/c2c(S(=O)(=O)O)cc3cc(S(=O)(=O)O)cc(NC(C)=O)c3c2O)cc1 | 23200 mg/kg
56 | CCOP(=O)(OCC)SCC1(C)SCCS1 | 28 mg/kg
57 | c1ccc(N(c2ccccc2)c2ccccc2)cc1 | 3200 mg/kg
58 | CCOP(=O)(OCC)SC=C(Cl)Cl | 1.75 mg/kg
59 | CC=CC(C)=O | 3200 mg/kg
60 | Cn1c(=O)c2c(ncn2CC2SCCS2)n(C)c1=O | 1840 mg/kg
61 | O=C(CO)c1coc(=O)c2c(O)cccc12 | 250 mg/kg
62 | CC(=O)CC(=O)Nc1ccc(C)cc1C | 3000 mg/kg
63 | O=C(Cc1ccccc1)OCCc1ccccc1 | 15000 mg/kg
64 | c1ccc2c(c1)OCCOCCOc1ccccc1OCCOCCO2 | 2600 mg/kg
65 | CC(Oc1ccc2ccccc2c1)C(O)=Nc1ccccc1 (centres undefined) | 15000 mg/kg
66 | COC=CC=C(C#N)C#N | 200 mg/kg
67 | CC(N)CC(C)(C)N (centres undefined) | 431 mg/kg
68 | c1cc2c(cc1C1CO1)O2 (centres undefined) | 2830 mg/kg
69 | O=C(O)CCSCCC(=O)O | 3000 mg/kg
